Experiments:
[1] = test system: BSA; experiment: ELISA seroconversion to BSA in mice, BSA/adjuvant stability, time 0 and 6 months (Example 4); type: in vivo; conditions: for Normalized: Day 28/29, Table 18 (to BSA only GMT of the same storage temperature); for Geometric Means: Time point 6 Months
[2] = test system: BSA; experiment: ELISA seroconversion to BSA in CF-1 mice, BSA/adjuvant stability at 12 months (Example 8); type: in vivo; conditions: 12 Month; for Geometric Mean (ELISA to BSA): adjuvants at 4X, > 20 considered positive
[3] = 6 Month, Day 28/29, S = stored stability sample, F = fresh, storage in the label
[4] = Day 13, mice SC 50 ug BSA/0.1 mL
[5] = Day 28/29, mice SC 50 ug BSA/0.1 mL days 0 and 14
[6] = Time 0, Day 32, mice SC 50 ug BSA/0.1 mL on days 0 and 14, value of 10 used for no seroconversion

Row | Substance | Incidence (# Mice Seroconverted/# Mice Treated) ([1]; 6 Month, Day 28/29) | Normalized ([1]; 6 Month) | Geometric Mean (ELISA to BSA) [1, 3] | Incidence ([2]; Day 13) | Geometric Mean (ELISA to BSA) [2, 4] | Incidence ([2]; Day 28/29) | Geometric Mean (ELISA to BSA) [2, 5] | Incidence (# Mice Seroconverted/# Mice Treated) ([1]; Time 0, Day 32) | Normalized (Geomean BSA/Adj06 ÷ Geomean BSA/PBS) ([1]; Time 0, Day 32) | Geometric Mean (ELISA to BSA) [1, 6] | Geometric Means ([1]; Fresh) | Geometric Means ([1]; Stability Ambient - Storage (18-27° C.)) | Geometric Means ([1]; Stability Cold - Storage (2-7° C.))
1 | S-BSA/RT | 8/10 | 1 | 243 | 5/10 | 25 | 7/10 | 184 | – | – | – | – | – | –
2 | S-BSA/2-7° C. | 8/10 | 1 | 149 | 2/9 | 15 | 5/10 | 86 | 8/10 | 1 | 290 | – | – | –
3 | F-BSA | 6/10 | – | 98 | 5/9 | 20 | 7/10 | 149 | – | – | – | – | – | –
4 | BSA/PBS | – | – | – | – | – | – | – | 8/10 | – | 290 | 98 | 243 | 149

Source: US10265395B2, “Adjuvant compositions and related methods” (priority 2015, dated 2019)
